Test results: US12187712B2, “Cardiac sarcomere inhibitors” (Cytokinetics, Inc., priority 2018, dated 2025)

Experiments:
[1] = tested on: rat cardiac contractility; assay: Echocardiography assessment of acute pharmacodynamic effect in rat cardiac contractility (continuous IV infusion); type: in vivo, Sprague Dawley rats; conditions: estimated plasma concentration for 20% relative reduction in cardiac fractional shortening, loading + maintenance IV dose 0.5 + 1.5 mg/kg, isoflurane anesthesia
Procedure: Echocardiography assessment of acute pharmacodynamic effect in rat cardiac contractility.
Assessment of in vivo cardiac function by echocardiography was performed in male Sprague Dawley rats under isoflurane (1-3%) anesthesia. 2-D M-mode images of the left ventricle were acquired in the parasternal long-axis view before and during administration of compounds by continuous IV infusion. In vivo fractional shortening was determined by M-mode image analysis with the following calculation: ((End diastolic diameter−end systolic diameter)/end diastolic diameter×100). For continuous IV infusion experiments, three pre-dose baseline M-mode images were taken at 1 minute intervals prior to infusion of compound. Compounds were formulated in 50% Propylene Glycol (PG): 16% Cavitron: 10% dimethylacetamide (DMA) and delivered via a jugular vein catheter at the rate of 1 mL/kg/h. An estimated loading and maintenance IV infusion dose was administered to establish a steady state plasma concentration that produced a sustained, 20% relative reduction in cardiac fractional shortening for 60 minutes. During infusion, M-mode images were taken at 5 minute intervals for 60 minutes. Blood samples were taken to determine the plasma concentration of the compounds. Data were reported as an estimated IC20 value, which is the concentration at which fractional shortening is […]. […]

[2] = biological target: T1, bovine cardiac myofibrils (Bos taurus, UniProt Q9BE39); assay: Skinned myofibril ATPase assay (PK/LDH-coupled), CDMF75; type: biochemical; conditions: inhibition of steady-state ATPase activity of bovine cardiac myofibrils at 75% Ca2+ activation (pCa75)
T1 construct: full-length cardiac myosin in the context of the native sarcomere, skinned myofibril assays were performed; from tissue; host or cells: bovine cardiac left ventricular tissue, detergent-skinned (Triton X-100) myofibrils
Procedure: To evaluate the effect of compounds on the ATPase activity of full-length cardiac myosin in the context of the native sarcomere, skinned myofibril assays were performed. Bovine cardiac myofibrils were obtained by homogenizing bovine cardiac left ventricular tissue in the presence of a detergent such as triton X-100. Such treatment removes membranes and a majority of the soluble cytoplasmic proteins but leaves intact the cardiac sarcomeric acto-myosin apparatus. Myofibril preparations retain the ability to hydrolyze ATP in an Ca^2+ regulated manner. ATPase activities of such myofibril preparations in the presence and absence of compounds were assayed at Ca^2+ concentrations activating to a defined fraction of the maximal rate (i.e., 25%, 75%). Small molecule agents were assessed for their ability to inhibit the steady-state ATPase activity of bovine cardiac myofibrils using pyruvate kinase and lactate dehydrogenase (PK/LDH)-coupled enzyme system. This assay regenerates myosin-produced ADP into ATP by oxidizing NADH, producing an absorbance change at 340 nm. Prior to testing small molecule agents, the bovine cardiac myofibrils were assessed for their calcium responsiveness and the calcium concentration that achieves either a 50% (pCa50) or 75% (pCa75) activation of the myofibril system was chosen as the final condition for assessing the inhibitory activity of the small molecule agents. All enzymatic activity was measured in a buffered solution containing 12 mM PIPES (piperazine-N,N′-bis(2-ethanesulfonic acid), 2 mM magnesium chloride at pH 6.8 (PM 12 buffer). Final assay conditions were 1 mg/mL of bovine cardiac myofibrils, 4 U/mL pyruvate kinase, 6 U/mL lactate dehydrogenase, 50 μM ATP, 0.1 mg/mL BSA (bovine serum albumin), 10 ppm antifoam, 1 mM DTT, 0.5 mM NADH, 1.5 mM PEP, 0.6 mM EGTA, and an amount of CaCl2 sufficient to achieve either 50% or 75% activation of the myofibril ATPase activity. Results for compounds tested are provided in Table A. Compounds tested were prepared in accordance with the synthetic procedures described herein.

[3] = tested on: adult cardiac ventricular rat myocytes; assay: Adult ventricular myocyte contractility (fractional shortening); type: cell-based, Sprague-Dawley rats; conditions: 5 min perfusion, 5 cells tested
Procedure: Adult male Sprague-Dawley rats were anesthetized and the hearts were quickly excised, rinsed and the ascending aorta was cannulated. Continuous retrograde perfusion was initiated on the hearts at a perfusion pressure of 60 cm H2O. Hearts were first perfused with a nominally Ca^2+-free modified Krebs solution of the following composition: 113 mM NaCl, 4.7 mM KCl, 0.6 mM KH2PO4, 0.6 mM Na2HPO4, 1.2 mM MgSO4, 12 mM NaHCO3, 10 mM KHCO3, 30 mM taurine, 5.5 mM glucose and 10 mM Hepes (all Sigma). This medium is not recirculated and is continually aerated with a 95% O2/5% CO2 mixture. After approximately 3 minutes, the heart was perfused with a modified Krebs buffer supplemented with collagenase (Worthington) and 12.5 μM final calcium concentration. The heart was removed from the cannulae after the heart appeared blanched and soft in appearance. The atria and vessels were removed, and the ventricles were gently dissected into smaller pieces with forceps. The tissue was homogenized by repeated pipette trituration, and the collagenase reaction was stopped by 10% bovine calf serum (BCS), sedimentation and resuspension in perfusion buffer containing 5% BCS and 12.5 uM CaCl2. Myocytes were made calcium tolerant by stepwise addition of a CaCl2 solution to a final concentration of 1.2 mM. Cells were then washed and resuspended in Tyrode's buffer (137 mM NaCl, 3.7 mM KCl, 0.5 mM MgCl, 11 mM glucose, 4 mM Hepes, and 1.2 mM CaCl2, pH 7.4). Cells were kept for 60 min at 37° C. prior to initiating experiments and used within 5 hrs of isolation. […] Additionally, only cells whose basal contractility was between 3 and 8% were used in subsequent experiments with compounds.
Aliquots of myocytes in Tyrode's buffer were placed in perfusion chambers (series 20 RC-27NE; Warner Instruments) complete with heating platforms. […] Contractility of the myocytes and contraction and relaxation velocities were then recorded using edge detection.
Five or more individual myocytes were tested per compound from two or more different myocyte preparations. […] These average transients were analyzed using the IonWizard software (IonOptix) to determine changes in diastolic length and fractional shortening. Fractional shortening was calculated as: ((resting length −length at peak contraction) divided by the resting length). The percent change in fractional shortening from baseline was calculated as: ((post-dose fractional shortening/basal fractional shortening)*100). The percent reduction in fractional shortening from baseline was calculated as: (100−percent change in fractional shortening from baseline). Maximum contraction and relaxation velocities (um/sec) was also determined. Results from individual cells were averaged and the SEM was calculated.

T1 sequence (Q9BE39 whole entry): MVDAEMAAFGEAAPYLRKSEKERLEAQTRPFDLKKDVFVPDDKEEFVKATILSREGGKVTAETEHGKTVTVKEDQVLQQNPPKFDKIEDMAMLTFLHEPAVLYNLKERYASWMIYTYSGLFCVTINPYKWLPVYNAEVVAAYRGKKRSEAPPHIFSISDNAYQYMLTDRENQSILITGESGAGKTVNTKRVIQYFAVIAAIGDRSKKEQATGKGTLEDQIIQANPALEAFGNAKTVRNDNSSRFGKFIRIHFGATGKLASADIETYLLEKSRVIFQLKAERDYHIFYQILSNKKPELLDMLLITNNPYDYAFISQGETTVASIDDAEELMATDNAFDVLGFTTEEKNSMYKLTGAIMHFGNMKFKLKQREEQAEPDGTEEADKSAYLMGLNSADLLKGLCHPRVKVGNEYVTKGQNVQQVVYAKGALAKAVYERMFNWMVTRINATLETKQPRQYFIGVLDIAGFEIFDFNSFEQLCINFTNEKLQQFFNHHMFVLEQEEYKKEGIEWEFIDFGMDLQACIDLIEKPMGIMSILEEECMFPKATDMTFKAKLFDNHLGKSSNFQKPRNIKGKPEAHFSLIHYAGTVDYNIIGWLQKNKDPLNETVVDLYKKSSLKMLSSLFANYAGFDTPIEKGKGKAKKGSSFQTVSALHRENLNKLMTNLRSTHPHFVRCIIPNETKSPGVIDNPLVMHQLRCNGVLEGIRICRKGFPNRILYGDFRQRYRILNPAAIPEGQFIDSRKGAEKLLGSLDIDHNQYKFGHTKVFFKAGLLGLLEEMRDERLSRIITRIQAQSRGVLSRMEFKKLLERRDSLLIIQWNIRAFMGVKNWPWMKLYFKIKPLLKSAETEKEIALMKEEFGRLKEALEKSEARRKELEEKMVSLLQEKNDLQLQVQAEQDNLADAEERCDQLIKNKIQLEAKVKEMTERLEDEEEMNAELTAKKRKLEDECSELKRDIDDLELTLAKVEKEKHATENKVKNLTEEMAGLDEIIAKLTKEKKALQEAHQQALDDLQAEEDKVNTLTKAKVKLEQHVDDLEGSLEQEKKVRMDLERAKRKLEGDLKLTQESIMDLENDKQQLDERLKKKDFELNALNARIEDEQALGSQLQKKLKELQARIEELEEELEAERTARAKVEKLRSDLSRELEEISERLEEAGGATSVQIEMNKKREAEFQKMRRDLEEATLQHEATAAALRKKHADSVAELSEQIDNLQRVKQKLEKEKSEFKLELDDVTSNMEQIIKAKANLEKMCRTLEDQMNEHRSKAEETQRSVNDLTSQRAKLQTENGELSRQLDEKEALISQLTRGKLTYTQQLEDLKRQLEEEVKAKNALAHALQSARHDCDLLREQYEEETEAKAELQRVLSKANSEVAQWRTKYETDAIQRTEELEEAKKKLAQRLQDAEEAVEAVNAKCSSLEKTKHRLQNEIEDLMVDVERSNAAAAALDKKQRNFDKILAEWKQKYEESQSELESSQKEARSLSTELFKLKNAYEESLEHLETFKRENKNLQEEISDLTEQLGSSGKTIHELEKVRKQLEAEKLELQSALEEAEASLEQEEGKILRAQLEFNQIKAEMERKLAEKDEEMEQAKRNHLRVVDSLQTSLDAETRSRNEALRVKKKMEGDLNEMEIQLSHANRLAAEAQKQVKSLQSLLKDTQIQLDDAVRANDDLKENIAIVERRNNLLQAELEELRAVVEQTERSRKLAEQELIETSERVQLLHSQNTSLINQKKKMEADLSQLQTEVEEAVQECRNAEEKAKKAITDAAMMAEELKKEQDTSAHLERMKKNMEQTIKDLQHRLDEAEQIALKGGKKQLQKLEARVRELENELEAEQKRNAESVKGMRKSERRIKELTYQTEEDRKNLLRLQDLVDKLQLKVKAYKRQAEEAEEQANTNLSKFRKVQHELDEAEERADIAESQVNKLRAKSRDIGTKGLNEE
T1 sequence (P85100 whole entry partner): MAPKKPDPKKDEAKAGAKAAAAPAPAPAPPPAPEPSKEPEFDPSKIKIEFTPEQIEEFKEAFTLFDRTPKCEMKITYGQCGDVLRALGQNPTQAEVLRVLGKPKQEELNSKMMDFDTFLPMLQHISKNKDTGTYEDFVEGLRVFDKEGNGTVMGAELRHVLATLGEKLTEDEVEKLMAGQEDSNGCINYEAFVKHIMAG
T1 sequence (Q3SZE5 whole entry partner): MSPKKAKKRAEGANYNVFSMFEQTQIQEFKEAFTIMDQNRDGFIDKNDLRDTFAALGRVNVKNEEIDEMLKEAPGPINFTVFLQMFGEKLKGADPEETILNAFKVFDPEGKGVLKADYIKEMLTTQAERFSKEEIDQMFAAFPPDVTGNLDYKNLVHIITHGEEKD

SMILES | IC20 at 1.5 mg/kg [1] | CDMF75 IC15 [2] | IC50 [2] | % FS (% reduction from baseline) ± SEM ([3]; concentration 5 μM) | % FS (% reduction from baseline) ± SEM ([3]; concentration 10 μM) | % FS (% reduction from baseline) ± SEM ([3]; concentration 1 μM)
Cc1nc(-c2ccc([C@@H](C)Nc3cnccn3)cc2)no1 [Compound 28, (R)-N-(1-(4-(5-methyl-1,2,4-oxadiazol-3-yl)phenyl)ethyl)pyrazin-2-amine] | 800 nM | 600 nM | 2600 nM | 43.6 ± 9.3% |  | 
Cc1nc(-c2ccc(CNc3cc(C(N)=O)ccn3)cc2)no1 [Compound 19, 2-((4-(5-methyl-1,2,4-oxadiazol-3-yl)benzyl)amino) isonicotinamide] |  | 1200 nM | 4300 nM |  | 14.4 ± 3.4% | 
C[C@@H](Nc1cnccn1)c1ccc(-c2noc(C(F)(F)F)n2)cc1 [Compound 34, (R)-N-(1-(4-(5-(trifluoromethyl)-1,2,4-oxadiazol-3-yl)phenyl)ethyl)pyrazin-2-amine] |  | 500 nM | 2300 nM | 30.7 ± 5.0% |  | 
Cc1cc(-c2ccc(CNc3cnccn3)cc2)no1 [Compound 52, N-(4-(5-methylisoxazol-3-yl)benzyl)pyrazin-2-amine] |  | 200 nM | 1000 nM |  |  | 17.4 ± 6.8%
